Experimental data published in US7888319B2, “Compositions and methods for promoting wound healing and tissue regeneration” (MUSC Foundation for Research Development, priority 2004, dated 2011).
Ends that are not written are not given here.

What was measured:
[1] = test system: 5 mm diameter excisional skin wounds; assay: Small (5 mm) excisional skin wounds in adult mice, ACT 1 to ACT 5; format: in vivo, mouse
Protocol: Anesthetized adult mice had 2 small (5 mm diameter) excisional skin wounds made by fine surgical scissors on the neck and (upper) back. The boundaries of the injuries were demarcated by a 5 mm wide circular template cut in a plastic sheet. 50-60 μl of a solution of 20% pluronic gel containing either no (control) or one of the ACT peptides (ACT 2-SEQ ID NO: 1, ACT 1-SEQ ID NO:2, ACT 3-SEQ ID NO:3, ACT 4-SEQ ID NO:4, ACT 5-SEQ ID NO:5) dissolved at concentrations of 100 μM were then applied to the excisional injuries. Control or ACT peptide-containing gel was applied subsequently 24 hours after the initial application. No further applications of control and ACT peptide-containing gel were made after the second application. […] Note that the same wound on the same animal is shown at the different time points during the healing time course. Anesthetized adult mice had 2 small (5 mm diameter) excisional skin wounds made by fine surgical scissors on the neck and (upper) back. The boundaries of the injuries were demarcated by a 5 mm wide circular template cut in a plastic sheet. 50-60 μl of a solution of 30% pluronic gel containing either no (control) or one of the ACT peptides (ACT 2—SEQ ID NO:1, ACT 1—SEQ ID NO:2, ACT 3—SEQ ID NO:3, ACT 4—SEQ ID NO:4, ACT 5—SEQ ID NO:5) dissolved at concentrations of 100 μM were then applied to the excisional injuries. Control or ACT peptide-containing gels were applied subsequently 24 hours after the initial application. No further applications of control and ACT peptide-containing gel were made after the second application. […] Note that the same wound on the same animal is shown at the different time points during the healing time course. The area of open wound was measured during the time course using NIH image according to standard protocols on multiple (˜5 mice per control or treatment condition) adult mice. These individual area measurements were then normalized to (i.e., divided by) the average area measured for the control injuries for a given time point, multiplied by 100 to give a % of unclosed wound relative to the control and then plotted against time. A Mann-Whitney U-test was used to statistically assess the effects of ACT peptides over the time course. […] These treatments provided results with significant p values.

[2] = test system: 4 mm long incisional skin injury; assay: Incisional skin injury in neonatal mouse; format: in vivo
Protocol: Neonatal mouse pups were desensitized using hypothermia. A 4 mm long incisional skin injury was made using a scalpel through the entire thickness of the skin (down to the level of the underlying muscle) in the dorsal mid line between the shoulder blades. 30 μl of a solution of 20% pluronic (F-127) gel containing either no (control) or dissolved ACT 1 peptide (SEQ ID NO: 2) at a concentration of 60 μM was then applied to the incisional injuries. Control or ACT peptide containing gel was applied subsequently 24 hours after the initial application. No further application of control and ACT peptide containing gel was made after the second application. […] These differences in inflammation, swelling and healing between the control and ACT peptide and control treated injury persisted at the 72 (c, d) and 96 (e, f) hour time points. […] Note that images of the same injury on the same animal are shown at the different time points during the healing time course. Neonatal mouse pups were desensitized using hypothermia. A 4 mm long incisional skin injury was made using a scalpel through the entire thickness of the skin (down to the level of the underlying muscle) in the dorsal mid line between the shoulder blades. 30 μl of a solution of 20% pluronic (F-127) gel containing either no (control) or dissolved ACT 1 peptide (SEQ ID NO:2) at a concentration of 60 μM was then applied to the incisional injuries. Pluronic gel has mild surfactant properties that may aid in the uniform dispersion of the ACT peptide in micelles. More importantly, 20% pluronic gel stays liquid at temperatures below 15° C., but polymerizes at body temperature (37° C.). This property of pluronic gel probably aided in the controlled release of peptide into the tissue at the site of incisional injury, protecting the peptide from break-down in the protease-rich environment of the wound and also enabling active concentrations of the peptide to maintained over prolonged periods. Control or ACT peptide containing gel was applied subsequently 24 hours after the initial application. […]

RPRPDDLEI (not fully specified (N-terminus)) [ACT 1, carboxy-terminal 9 amino acids of human Cx43; amino terminus biotinylated in tests]
closure, inflammation, healing and scarring of injuries ([1]; 100 μM in pluronic gel, 50-60 μl, applied at 0 and 24 hours, 240 hour time course (10 days), vs gel without peptide): closed faster, were significantly less inflamed in appearance, healed faster and scarred less
size of improvement in wound closure over the control, compared among peptides ([1]; 100 μM, over the time course): most pronounced improvements over the control
wound closure rates (area of open wound as % of unclosed wound relative to the control) ([1]; 100 μM, ~5 mice per condition, Mann-Whitney U-test over the time course): significantly improved wound closure rates
appearance of injury (closure, inflammation, swelling, healing) ([2]; 60 μM in 20% pluronic (F-127) gel, 30 μl, applied at 0 and 24 hours, by 48 hours, vs gel without peptide): significantly more closed, less inflamed, less swollen
differences in inflammation, swelling and healing versus control ([2]; 60 μM in 20% pluronic gel, 72 and 96 hour time points): persisted
scar appearance of wound ([2]; 60 μM in 20% pluronic gel, at 7 days): smoother and less scarred appearance
